Reference: patent EP2970215B1, “PYRROLIDINE DERIVATIVES, PHARMACEUTICAL COMPOSITIONS CONTAINING THEM, AND THEIR USE IN THERAPY” (AbbVie Deutschland GmbH & Co. KG, priority 2013, dated 2014)

Biological target: T1, human GlyT1c transporter (Homo sapiens, UniProt P48067)
T1 construct: expressed in transfected cells; host or cells: CHO cells (recombinant; line hGlyT1c_5_CHO is named for the uptake assay)
T1 sequence (P48067 1-706): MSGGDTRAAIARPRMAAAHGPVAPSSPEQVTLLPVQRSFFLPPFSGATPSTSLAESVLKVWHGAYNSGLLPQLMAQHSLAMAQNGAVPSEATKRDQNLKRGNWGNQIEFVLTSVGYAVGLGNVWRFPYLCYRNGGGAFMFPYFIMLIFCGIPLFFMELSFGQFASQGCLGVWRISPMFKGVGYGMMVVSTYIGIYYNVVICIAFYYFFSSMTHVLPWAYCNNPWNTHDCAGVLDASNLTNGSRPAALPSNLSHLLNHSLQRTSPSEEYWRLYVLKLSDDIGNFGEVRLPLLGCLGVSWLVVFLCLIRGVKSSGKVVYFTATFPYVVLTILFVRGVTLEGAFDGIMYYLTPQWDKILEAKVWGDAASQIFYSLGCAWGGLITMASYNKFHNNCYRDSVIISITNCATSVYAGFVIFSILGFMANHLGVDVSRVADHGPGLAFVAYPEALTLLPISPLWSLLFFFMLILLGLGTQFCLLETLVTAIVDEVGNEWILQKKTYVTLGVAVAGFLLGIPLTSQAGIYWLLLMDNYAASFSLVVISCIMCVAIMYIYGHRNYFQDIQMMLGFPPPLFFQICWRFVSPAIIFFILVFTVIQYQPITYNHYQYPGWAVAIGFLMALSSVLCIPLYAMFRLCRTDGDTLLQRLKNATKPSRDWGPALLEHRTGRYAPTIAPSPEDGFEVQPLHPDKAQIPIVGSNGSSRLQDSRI
Assay: Radioligand binding assay using recombinant CHO cell membranes expressing human GlyT1
Conditions: radioligand binding to human GlyT1c transporter-expressing membranes
Text: 2. Radioligand binding assays using recombinant CHO cell membranes expressing human GlyT1: […]

Ki [nM] | SMILES
≤ 10 | Cn1cnc(S(=O)(=O)N2C[C@H](NCc3ccc(Cl)s3)[C@@H](c3ccc(F)cc3)C2)c1 [Example 393, (3R,4S)-N-[(5-chlorothiophen-2-yl)methyl]-4-(4-fluorophenyl)-1-[(1-methyl-1H-imidazol-4-yl)sulfonyl]pyrrolidin-3-amine]
≤ 10 | Cn1cnc(S(=O)(=O)N2C[C@H](Nc3cc(C(F)(F)F)ccn3)[C@@H](c3ccccc3)C2)c1 [Example 396, N-{(3R,4S)-1-[(1-methyl-1H-imidazol-4-yl)sulfonyl]-4-phenylpyrrolidin-3-yl}-4-(trifluoromethyl)pyridin-2-amine]
≤ 10 | Cn1cnc(S(=O)(=O)N2C[C@H](Nc3cccc(C(F)(F)F)c3)[C@@H](c3ccccc3)C2)c1 [Example 397, (3R,4S)-1-[(1-methyl-1H-imidazol-4-yl)sulfonyl]-4-phenyl-N-[3-(trifluoromethyl)phenyl]pyrrolidin-3-amine]
≤ 100 | Cn1cnc(S(=O)(=O)N2C[C@H](Nc3cccc(C(C)(O)C(F)(F)F)c3)[C@@H](c3ccccc3)C2)c1 (stereo partly drawn) [Example 399, 1,1,1-trifluoro-2-[3-({(3R,4S)-1-[(1-methyl-1H-imidazol-4-yl)sulfonyl]-4-phenylpyrrolidin-3-yl}amino)phenyl]propan-2-ol]
≤ 1000 | Cn1cnc(S(=O)(=O)N2C[C@H](Nc3cc(F)ccn3)[C@@H](c3ccccc3)C2)c1 [Example 405, 4-fluoro-N-{(3R,4S)-1-[(1-methyl-1H-imidazol-4-yl)sulfonyl]-4-phenylpyrrolidin-3-yl}pyridin-2-amine]
≤ 10000 | Cn1cnc(S(=O)(=O)N2C[C@H](Nc3ncnc4[nH]ccc34)[C@@H](c3ccccc3)C2)c1 [Example 406, N-{(3R,4S)-1-[(1-methyl-1H-imidazol-4-yl)sulfonyl]-4-phenylpyrrolidin-3-yl}-7H-pyrrolo[2,3-d]pyrimidin-4-amine]
≤ 10000 | Cn1cnc(S(=O)(=O)N2C[C@H](Nc3ncc(F)c(C(F)(F)F)c3F)[C@@H](c3ccccc3)C2)c1 [Example 408, 3,5-difluoro-N-{(3R,4S)-1-[(1-methyl-1H-imidazol-4-yl)sulfonyl]-4-phenylpyrrolidin-3-yl}-4-(trifluoromethyl)pyridin-2-amine]
≤ 100 | Cn1cnc(S(=O)(=O)N2C[C@H](NCc3ccc(C(F)(F)F)cn3)[C@@H](c3ccccc3)C2)c1 [Example 409, (3R,4S)-1-[(1-methyl-1H-imidazol-4-yl)sulfonyl]-4-phenyl-N-{[5-(trifluoromethyl)pyridin-2-yl]methyl}pyrrolidin-3-amine]
≤ 10000 | Cn1cnc(S(=O)(=O)N2C[C@H](Nc3cnc(C4CC4)cn3)[C@@H](c3ccccc3)C2)c1 [Example 410, 5-cyclopropyl-N-{(3R,4S)-1-[(1-methyl-1H-imidazol-4-yl)sulfonyl]-4-phenylpyrrolidin-3-yl}pyrazin-2-amine]
≤ 10000 | Cn1cnc(S(=O)(=O)N2C[C@H](Nc3cnc(N4CCCC4)cn3)[C@@H](c3ccccc3)C2)c1 [Example 413, N-{(3R,4S)-1-[(1-methyl-1H-imidazol-4-yl)sulfonyl]-4-phenylpyrrolidin-3-yl}-5-(pyrrolidin-1-yl)pyrazin-2-amine]
≤ 10000 | Cn1cnc(S(=O)(=O)N2C[C@H](NC(=O)c3cnc(Cl)cn3)[C@@H](c3ccccc3)C2)c1 [Example 415, 5-chloro-N-{(3R,4S)-1-[(1-methyl-1H-imidazol-4-yl)sulfonyl]-4-phenylpyrrolidin-3-yl}pyrazine-2-carboxamide]

SMILES | Ki [nM]
Cn1cnc(S(=O)(=O)N2C[C@H](NCc3ccc(C(F)(F)F)cc3Cl)[C@@H](c3ccccc3)C2)c1 [Example 394, (3R,4S)-N-[2-chloro-4-(trifluoromethyl)benzyl]-1-[(1-methyl-1H-imidazol-4-yl)sulfonyl]-4-phenylpyrrolidin-3-amine] | ≤ 10
Cn1cnc(S(=O)(=O)N2C[C@@H](NCc3ccc(C(F)(F)F)cc3Cl)[C@H](c3ccccc3)C2)c1 [Example 395, (3S,4R)-N-[2-chloro-4-(trifluoromethyl)benzyl]-1-[(1-methyl-1H-imidazol-4-yl)sulfonyl]-4-phenylpyrrolidin-3-amine] | ≤ 1000
